In US20260242359A1, “IRHOM2 INHIBITORS AND USES THEREOF” (NEW YORK SOCIETY FOR THE RELIEF OF THE RUPTURED AND …, priority 2023, published 2026):

Test system: PMA-induced release of endogenous HB-EGF from human peripheral blood mononuclear cells (PBMCs)
Experiment: Example 16: ELISA-based HB-EGF release assay, PMA-induced, PBMCs from healthy donor
Type: cell-based
Settings: 10 μM final concentration, PMA 25 ng/ml, delta Buffer stimulated vs unstimulated = 100% inhibition; for inhibition at 10 µM: Homo sapiens, PBMC
Method: In the following study, ELISA-based HB-EGF release assays were performed to analyze the inhibitory effects of Compounds 1, 2, 3, 4, 5, and 7 on PMA-induced release of endogenous HB-EGF from primary human material obtained from healthy donor using peripheral blood mononuclear cells (PBMCs). The ELISA-based HB-EGF release assay that was used in this example is described below.
In brief, on day 1, Nunc black MaxiSorp® 96-well plates (Thermo Fisher Scientific, USA) were coated overnight with 100 μl per well of mouse anti-human HB-EGF capture antibody (provided as part of the DuoSet ELISA kit) at 2 μg/ml TBS at 4° C.
80,000 PBMCs from healthy donor (SciRhom GmbH, Germany) in 80 μl of normal growth medium were seeded in each well of Greiner CELLSTAR V-bottom 96-well plates (Greiner Bio-One, Germany) and pre-incubated with […] per well of standard growth medium supplemented with Batimastat (BB94, Abcam, UK) at 50 μM as positive control (for a final concentration of 10 μM in the resulting 100 μl sample volume), compounds of the invention at 50 μM (for a final concentration of 10 μM in the resulting 100 μl sample volume) and in case of Buffer stimulated and unstimulated controls with DMSO (Carl Roth, Germany) at 50 μM (for a final concentration of 10 μM in the resulting 100 μl sample volume) at 37° C., 5% CO2 for 30 minutes. Subsequently, cells (except those for unstimulated controls) were stimulated with 20 μl per well of PMA (Sigma-Aldrich, USA) at 150 ng/ml in growth medium for a final concentration of 25 ng/ml at 37° C., 5% CO2 for 22 hours.
On day 2, the capture antibody solution was removed and MaxiSorp® plates were blocked with 300 μl per well of TBS, 1% BSA at room temperature for 1-2 hours. Meanwhile, the 96-well plates were centrifuged to pellet cells. In parallel, blocking buffer was removed from the MaxiSorp® plates and plates were washed 4 times with 350 μl TBS-T (Carl Roth, Germany) per well on a 96-head plate washer (Tecan Group, Switzerland). To avoid drying-up, 30 μl TBS were added to each well of the MaxiSorp® plates immediately, followed by the transfer of 70 μl cell-free supernatant per sample. Additionally, 100 μl recombinant human HB-EGF protein (provided as part of the DuoSet ELISA kit) diluted in TBS at defined concentrations were added to the plate as standard references. Plates were incubated at room temperature for 2 hours. After 4 times washing with 350 μl TBS-T (Carl Roth, Germany) per well on a 96-head plate washer (Tecan Group, Switzerland) and careful removal of all buffer traces after the fourth cycle, 100 μl biotinylated goat anti-human HB-EGF detection antibody (provided as part of the DuoSet ELISA kit) at 50 ng/ml TBS were added per well and, protected from direct light, plates were incubated at room temperature for 2 hours.
After 4 times washing with 350 μl TBS-T (Carl Roth, Germany) per well on a 96-head plate washer (Tecan Group, Switzerland) and careful removal of all buffer traces after the fourth cycle, 100 μl streptavidin-AP (R&D Systems, USA) diluted 1:10,000 in TBS were added to each well and, again protected from direct light, plates were incubated at room temperature for 30 minutes. Following another round of 4 times washing with 350 μl TBS-T (Carl Roth, Germany) per well on a 96-head plate washer (Tecan Group, Switzerland) and careful removal of all buffer traces after the fourth cycle, 100 μl AttoPhos substrate solution (Promega, USA) per well was added for incubation in the dark at room temperature for 1 hour. Using an infinite M1000 (Tecan Group, Switzerland) microplate reader, the fluorescence of each well was collected at an excitation wavelength of 435 nm and an emission wavelength of 555 nm.
The delta between Buffer stimulated and Buffer unstimulated was defined 100% inhibition.

With `CNC(=O)[C@H](Cc1ccccc1)NC(=O)[C@H](CC(C)C)[C@H](CSc1cccs1)C(=O)NO` [Batimastat, reference compound] the “inhibition of PMA-induced release of HB-EGF from PBMCs from healthy donor” value (22 hours) was 107.6% and the inhibition at 10 µM (22 h) was 98.5%.

In the case of `CCC(=O)NCCc1c(/C=C2/C(=O)NC(=O)N(c3ccc(C)cc3C)C2=O)[nH]c2ccccc12` [Compound 1], the inhibition at 10 µM (22 hours) is reported as 101%.

`CCOC(=O)c1ccc(Nc2nc3nonc3n3nnnc23)cc1` [Compound 2] was tested, and the inhibition at 10 µM (22 h) was 100%.

With `O=C(c1c(Cl)cccc1Cl)N1CCC(Cc2ccc(F)cc2)CC1` [Compound 3] the inhibition at 10 µM (22 h) was 22.4%.

Work on `Cc1c(C(=O)NCc2cccs2)sc(=O)n1Cc1ccccc1` [Compound 4] yielded an inhibition at 10 µM (22 h) of 38.7%.

`Cc1c(C(=O)NCc2cccs2)sc(=O)n1Cc1ccccc1F` [Compound 5] gave an inhibition at 10 µM (22 h) of 34%.

`Cc1c(C(=O)NCc2ccco2)sc(=O)n1Cc1ccccc1F` [Compound 7] gave an inhibition at 10 µM (22 h) of 107%.
